Source: ChEMBL document CHEMBL1201862, “PubChem BioAssay data set” (2004)
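Method: 48-hour compound exposure of cells in 96-well plates, five concentrations, linear interpolation of endpoints. Here, GI50 denotes the concentration required for 50% inhibition of growth.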 Calls of active or inactive are those of the source. Cut-off read from the data, not from the text of the source: active = GI50 up to about 1.1 µM and inactive = higher.

Assays:
Assay in all cases: inhibition of tumour cell growth, NCI panel, 48 h
[1] = test system: SF-268
[2] = test system: UACC-62
[3] = test system: KM12
[4] = test system: NCI-H226
[5] = test system: RXF 393
[6] = test system: HCC 2998
[7] = test system: OVCAR-3
[8] = test system: M19-MEL
[9] = test system: SF-539
[10] = test system: UACC-257
[11] = test system: NCI/ADR-RES
[12] = test system: NCI-H460
[13] = test system: SK-OV-3
[14] = test system: OVCAR-8
[15] = test system: HOP-18
[16] = test system: Malme-3M
[17] = test system: COLO 205
[18] = test system: OVCAR-5
[19] = test system: K562
[20] = test system: SK-MEL-28
[21] = test system: KM-20L2
[22] = test system: A549
[23] = test system: XF498
[24] = test system: NCI-H522
[25] = test system: IGROV-1
[26] = test system: SK-MEL-5
[27] = test system: U-251
[28] = test system: SK-MEL-2
[29] = test system: MCF7
[30] = test system: OVCAR-4
[31] = test system: DMS-114
[32] = test system: HCT-116
[33] = test system: HL-60
[34] = test system: HCT-15
[35] = test system: RPMI-8226
[36] = test system: SNB-75
[37] = test system: A498
[38] = test system: CAKI-1
[39] = test system: UO-31
[40] = test system: DMS-273
[41] = test system: SN12C
[42] = test system: MOLT-4
[43] = test system: NCI-H23
[44] = test system: HOP-62
[45] = test system: LOX IMVI
[46] = test system: SF-295
[47] = test system: CCRF-CEM
[48] = test system: HOP-92
[49] = test system: SW-620
[50] = test system: EKVX
[51] = test system: HT-29
[52] = test system: SNB-19
[53] = test system: SNB-78
[54] = test system: DLD-1
[55] = test system: TK-10
[56] = test system: ACHN
[57] = test system: M14
[58] = test system: 786-0
[59] = test system: LXFL 529
[60] = test system: SR

SMILES: CC[C@](C)(O)C(=O)O[C@H]1C(=O)O[C@@H]2C[C@H]3C(C)=C[C@H](O)[C@@H](O)[C@]3(C)[C@H]3[C@@]4(O)OC[C@]32[C@@H]1[C@@H](C)[C@H]4O
- GI50 [1]: 52.5 µM (inactive)
- GI50 [2]: 19.3 µM (inactive)
- GI50 [3]: 21.6 µM (inactive)
- GI50 [4]: 17.7 µM (inactive)
- GI50 [5]: 0.631 µM (active)
- GI50 [6]: 14.1 µM (inactive)
- GI50 [7]: 13.5 µM (inactive)
- GI50 [8]: 11 µM (inactive)
- GI50 [9]: 12.5 µM (inactive)
- GI50 [10]: 47.8 µM (inactive)
- GI50 [11]: > 205 µM (inactive)
- GI50 [12]: 9.73 µM (inactive)
- GI50 [13]: 71.9 µM (inactive)
- GI50 [14]: 34 µM (inactive)
- GI50 [15]: 59.7 µM (inactive)
- GI50 [16]: 8.93 µM (inactive)
- GI50 [17]: 32.7 µM (inactive)
- GI50 [18]: 104 µM (inactive)
- GI50 [19]: 8.3 µM (inactive)
- GI50 [20]: 17.3 µM (inactive)
- GI50 [21]: 47.1 µM (inactive)
- GI50 [22]: 61.8 µM (inactive)
- GI50 [23]: 11.9 µM (inactive)
- GI50 [24]: 3.58 µM (inactive)
- GI50 [25]: 7.19 µM (inactive)
- GI50 [26]: 9.48 µM (inactive)
- GI50 [27]: 12 µM (inactive)
- GI50 [28]: 37.7 µM (inactive)
- GI50 [29]: 11.6 µM (inactive)
- GI50 [30]: 58.6 µM (inactive)
- GI50 [31]: 3.68 µM (inactive)
- GI50 [32]: 14.7 µM (inactive)
- GI50 [33]: 7.85 µM (inactive)
- GI50 [34]: 58.2 µM
- GI50 [35]: 4.34 µM (inactive)
- GI50 [36]: 24.2 µM (inactive)
- GI50 [37]: 30.2 µM (inactive)
- GI50 [38]: 27.5 µM (inactive)
- GI50 [39]: 96.2 µM (inactive)
- GI50 [40]: 17.9 µM (inactive)
- GI50 [41]: 73.5 µM (inactive)
- GI50 [42]: 6.93 µM (inactive)
- GI50 [43]: 5.78 µM (inactive)
- GI50 [44]: 35.1 µM (inactive)
- GI50 [45]: 14.5 µM (inactive)
- GI50 [46]: 46.5 µM (inactive)
- GI50 [47]: 4.19 µM (inactive)
- GI50 [48]: 4.28 µM (inactive)
- GI50 [49]: 12.4 µM (inactive)
- GI50 [50]: 9.33 µM (inactive)
- GI50 [51]: 29.9 µM (inactive)
- GI50 [52]: 9.79 µM (inactive)
- GI50 [53]: 29.2 µM (inactive)
- GI50 [54]: 6.11 µM (inactive)

SMILES: Cc1cc(N)c2cc(NC(=O)CCCCCCCCC(=O)Nc3ccc4nc(C)cc(N)c4c3)ccc2n1
- GI50 [1]: 29.6 µM (inactive)
- GI50 [2]: > 77.3 µM (inactive)
- GI50 [3]: 5.57 µM (inactive)
- GI50 [4]: 2.43 µM (inactive)
- GI50 [5]: > 65.3 µM (inactive)
- GI50 [6]: 10.3 µM (inactive)
- GI50 [7]: 98.6 µM (inactive)
- GI50 [8]: 15.4 µM (inactive)
- GI50 [9]: 16.8 µM (inactive)
- GI50 [10]: > 50.4 µM (inactive)
- GI50 [12]: 2.47 µM (inactive)
- GI50 [13]: > 68.4 µM (inactive)
- GI50 [55]: 45.8 µM (inactive)
- GI50 [14]: > 100 µM (inactive)
- GI50 [15]: > 100 µM (inactive)
- GI50 [16]: 25.4 µM (inactive)
- GI50 [17]: 18.1 µM (inactive)
- GI50 [18]: > 56 µM (inactive)
- GI50 [19]: 16.9 µM (inactive)
- GI50 [20]: 42.8 µM (inactive)
- GI50 [21]: 29.1 µM (inactive)
- GI50 [22]: 6.35 µM (inactive)
- GI50 [56]: 69.5 µM (inactive)
- GI50 [23]: > 27.2 µM (inactive)
- GI50 [24]: 1.98 µM (inactive)
- GI50 [25]: > 30.5 µM (inactive)
- GI50 [57]: > 84.9 µM (inactive)
- GI50 [26]: 5.58 µM (inactive)
- GI50 [27]: 18.4 µM (inactive)
- GI50 [28]: > 100 µM (inactive)
- GI50 [58]: 28.2 µM (inactive)
- GI50 [30]: > 100 µM (inactive)
- GI50 [32]: 5.07 µM (inactive)
- GI50 [33]: 1.54 µM (inactive)
- GI50 [34]: > 100 µM
- GI50 [35]: 5.53 µM (inactive)
- GI50 [36]: 32.9 µM (inactive)
- GI50 [37]: 29.5 µM (inactive)
- GI50 [38]: > 100 µM (inactive)
- GI50 [39]: > 100 µM (inactive)
- GI50 [40]: 7.19 µM (inactive)
- GI50 [41]: 3.87 µM (inactive)
- GI50 [42]: 5.07 µM (inactive)
- GI50 [43]: 15.2 µM (inactive)
- GI50 [44]: > 61.9 µM (inactive)
- GI50 [45]: 22.2 µM (inactive)
- GI50 [46]: 43.2 µM (inactive)
- GI50 [47]: 10.7 µM (inactive)
- GI50 [59]: 4.37 µM (inactive)
- GI50 [48]: 33.7 µM (inactive)
- GI50 [49]: 27.9 µM (inactive)
- GI50 [50]: 36.3 µM (inactive)
- GI50 [51]: 32.9 µM (inactive)
- GI50 [60]: 11.7 µM (inactive)
- GI50 [52]: > 38.4 µM (inactive)
- GI50 [53]: > 100 µM (inactive)
- GI50 [54]: > 100 µM (inactive)

SMILES: CC12CCC(=O)N1c1ccc([N+](=O)[O-])cc1N2 (configuration not stated)
- GI50 [1]: > 100 µM (inactive)
- GI50 [2]: > 100 µM (inactive)
- GI50 [3]: > 100 µM (inactive)
- GI50 [4]: 42.3 µM (inactive)
- GI50 [5]: > 100 µM (inactive)
- GI50 [7]: > 100 µM (inactive)
- GI50 [8]: > 100 µM (inactive)
- GI50 [9]: > 100 µM (inactive)
- GI50 [10]: > 100 µM (inactive)
- GI50 [13]: > 100 µM (inactive)
- GI50 [14]: > 100 µM (inactive)
- GI50 [15]: > 100 µM (inactive)
- GI50 [16]: > 100 µM (inactive)
- GI50 [17]: > 100 µM (inactive)
- GI50 [19]: > 100 µM (inactive)
- GI50 [20]: > 100 µM (inactive)
- GI50 [21]: > 100 µM (inactive)
- GI50 [22]: > 100 µM (inactive)
- GI50 [56]: > 100 µM (inactive)
- GI50 [24]: > 100 µM (inactive)
- GI50 [25]: > 100 µM (inactive)
- GI50 [57]: > 100 µM (inactive)
- GI50 [26]: > 100 µM (inactive)
- GI50 [27]: > 100 µM (inactive)
- GI50 [28]: > 100 µM (inactive)
- GI50 [58]: > 100 µM (inactive)
- GI50 [30]: > 100 µM (inactive)
- GI50 [31]: > 100 µM (inactive)
- GI50 [32]: > 100 µM (inactive)
- GI50 [33]: 92.9 µM (inactive)
- GI50 [34]: > 100 µM
- GI50 [35]: > 100 µM (inactive)
- GI50 [36]: > 100 µM (inactive)
- GI50 [37]: > 100 µM (inactive)
- GI50 [39]: > 100 µM (inactive)
- GI50 [40]: > 100 µM (inactive)
- GI50 [41]: > 100 µM (inactive)
- GI50 [42]: 83.4 µM (inactive)
- GI50 [43]: > 100 µM (inactive)
- GI50 [44]: > 100 µM (inactive)
- GI50 [45]: > 100 µM (inactive)
- GI50 [46]: > 100 µM (inactive)
- GI50 [47]: > 100 µM (inactive)
- GI50 [59]: > 100 µM (inactive)
- GI50 [49]: > 100 µM (inactive)
- GI50 [50]: > 100 µM (inactive)
- GI50 [51]: > 100 µM (inactive)
- GI50 [60]: 71 µM (inactive)
- GI50 [52]: > 100 µM (inactive)
- GI50 [53]: > 100 µM (inactive)
- GI50 [54]: > 100 µM (inactive)
